According to patent publication US12065436B2, “Cardiac sarcomere inhibitors” (Cytokinetics, Inc., priority 2018, dated 2024):
pIC50: −log10 of the molar value.

Target: bovine cardiac myofibrils (full-length cardiac myosin ATPase in the native sarcomere) (Bos taurus (Bovine), UniProt Q9BE39)
Assay: Skinned bovine cardiac myofibril ATPase assay (PK/LDH-coupled)
Assay type: biochemical
Conditions: Ca2+ activating to 75% of maximal rate; for CDMF75 IC15: concentration giving 15% inhibition; for pIC50: read-out: CDMF75 IC50
Procedure, shortened: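 Inhibition of steady-state ATPase read at 340 nm through a PK/LDH-coupled NADH system (0.5 mM NADH, 1.5 mM PEP). Detergent-skinned bovine cardiac myofibrils, 1 mg/mL, were tested at pH 6.8 in PIPES/MgCl2 with 50 μM ATP and calcium adjusted to give pCa50 or pCa75 activation.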

bovine cardiac myofibrils (full-length cardiac myosin ATPase in the native sarcomere), sequence (Q9BE39 whole entry): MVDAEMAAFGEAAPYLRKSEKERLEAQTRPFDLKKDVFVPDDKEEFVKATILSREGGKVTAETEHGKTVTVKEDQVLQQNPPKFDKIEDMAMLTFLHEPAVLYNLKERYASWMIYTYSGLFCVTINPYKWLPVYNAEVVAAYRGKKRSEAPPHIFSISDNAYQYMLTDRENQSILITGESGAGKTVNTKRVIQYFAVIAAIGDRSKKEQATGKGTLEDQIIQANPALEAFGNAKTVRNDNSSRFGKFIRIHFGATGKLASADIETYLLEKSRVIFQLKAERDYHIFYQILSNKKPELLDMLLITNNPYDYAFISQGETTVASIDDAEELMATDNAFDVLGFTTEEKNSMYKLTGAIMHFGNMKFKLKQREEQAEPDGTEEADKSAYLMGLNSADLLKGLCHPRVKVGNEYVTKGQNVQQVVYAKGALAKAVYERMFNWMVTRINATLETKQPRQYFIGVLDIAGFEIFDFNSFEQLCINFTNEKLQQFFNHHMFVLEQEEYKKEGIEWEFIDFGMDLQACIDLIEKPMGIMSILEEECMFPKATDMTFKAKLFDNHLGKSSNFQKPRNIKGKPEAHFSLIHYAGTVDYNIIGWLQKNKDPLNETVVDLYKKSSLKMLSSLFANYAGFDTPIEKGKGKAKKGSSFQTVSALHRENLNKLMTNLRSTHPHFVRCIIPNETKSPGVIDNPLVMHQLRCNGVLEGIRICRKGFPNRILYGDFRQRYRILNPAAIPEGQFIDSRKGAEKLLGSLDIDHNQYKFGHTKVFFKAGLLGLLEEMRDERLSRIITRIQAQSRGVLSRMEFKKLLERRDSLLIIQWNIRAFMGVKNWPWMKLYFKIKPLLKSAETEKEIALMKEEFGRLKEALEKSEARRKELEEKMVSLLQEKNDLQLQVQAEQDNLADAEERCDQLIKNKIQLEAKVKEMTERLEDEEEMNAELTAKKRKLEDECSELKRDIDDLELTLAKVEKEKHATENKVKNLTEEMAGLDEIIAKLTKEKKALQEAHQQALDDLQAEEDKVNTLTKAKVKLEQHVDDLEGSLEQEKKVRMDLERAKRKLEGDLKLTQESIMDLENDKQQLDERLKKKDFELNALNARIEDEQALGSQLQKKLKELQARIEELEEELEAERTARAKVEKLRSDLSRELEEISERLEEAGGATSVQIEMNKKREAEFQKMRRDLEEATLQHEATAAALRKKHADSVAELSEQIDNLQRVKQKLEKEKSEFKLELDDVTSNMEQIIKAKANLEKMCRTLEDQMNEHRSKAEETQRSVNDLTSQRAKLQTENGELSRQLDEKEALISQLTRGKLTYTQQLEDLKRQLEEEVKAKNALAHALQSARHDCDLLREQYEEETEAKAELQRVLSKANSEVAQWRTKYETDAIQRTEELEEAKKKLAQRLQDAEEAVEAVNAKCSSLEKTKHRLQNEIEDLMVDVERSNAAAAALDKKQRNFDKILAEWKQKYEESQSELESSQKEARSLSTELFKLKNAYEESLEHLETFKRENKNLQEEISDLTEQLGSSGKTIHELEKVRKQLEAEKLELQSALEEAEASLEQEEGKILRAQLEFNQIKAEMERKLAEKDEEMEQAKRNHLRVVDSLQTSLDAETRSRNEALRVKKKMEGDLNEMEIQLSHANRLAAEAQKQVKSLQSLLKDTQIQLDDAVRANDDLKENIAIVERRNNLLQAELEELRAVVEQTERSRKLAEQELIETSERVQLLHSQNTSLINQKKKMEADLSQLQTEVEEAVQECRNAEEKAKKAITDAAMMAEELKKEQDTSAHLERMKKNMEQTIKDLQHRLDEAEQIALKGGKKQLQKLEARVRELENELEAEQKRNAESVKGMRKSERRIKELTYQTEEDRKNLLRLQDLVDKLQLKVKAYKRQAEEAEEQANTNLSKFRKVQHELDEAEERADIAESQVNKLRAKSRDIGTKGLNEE
bovine cardiac myofibrils (full-length cardiac myosin ATPase in the native sarcomere), sequence (P85100 whole entry partner): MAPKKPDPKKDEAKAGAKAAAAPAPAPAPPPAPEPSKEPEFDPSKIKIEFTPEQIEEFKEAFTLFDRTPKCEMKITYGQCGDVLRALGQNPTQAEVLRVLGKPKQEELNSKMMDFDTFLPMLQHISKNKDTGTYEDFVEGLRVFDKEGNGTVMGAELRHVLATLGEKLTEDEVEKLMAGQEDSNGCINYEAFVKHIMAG
bovine cardiac myofibrils (full-length cardiac myosin ATPase in the native sarcomere), sequence (Q3SZE5 whole entry partner): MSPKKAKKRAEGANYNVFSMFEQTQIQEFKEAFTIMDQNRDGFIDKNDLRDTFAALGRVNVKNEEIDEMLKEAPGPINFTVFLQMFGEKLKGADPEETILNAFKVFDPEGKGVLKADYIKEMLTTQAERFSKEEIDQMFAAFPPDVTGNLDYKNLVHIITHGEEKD

| SMILES | CDMF75 IC15 [nM] | pIC50 |
| --- | --- | --- |
| Cc1noc(-c2ccc3c(c2)OC[C@H]3NC(=O)c2cnn(C)c2)n1 [Compound 313, (S)-1-methyl-N-(6-(3-methyl-1,2,4-oxadiazol-5-yl)-2,3-dihydrobenzofuran-3-yl)-1H-pyrazole-4-carboxamide] | 1600 | 5.19 |
| [2H]C([2H])([2H])c1noc(-c2ccc3c(c2)CC[C@H]3NC(=O)c2cnn(C)c2)n1 [Compound 274, (R)-1-methyl-N-(5-(3-(methyl-d3)-1,2,4-oxadiazol-5-yl)-2,3-dihydro-1H-inden-1-yl)-1H-pyrazole-4-carboxamide] | 4000 | 4.82 |
| CCc1nc(-c2ccc3c(c2)CC[C@H]3NC(=O)c2ccn(C)c(=O)c2)no1 [Compound 558, (R)-N-(5-(5-ethyl-1,2,4-oxadiazol-3-yl)-2,3-dihydro-1H-inden-1-yl)-1-methyl-2-oxo-1,2-dihydropyridine-4-carboxamide] | 2000 | 5.08 |
| Cc1nc(-c2ccc3c(c2)CCC3NC(=O)Nc2cccnc2)no1 (centres unmarked) [Compound 62, 1-(5-(5-methyl-1,2,4-oxadiazol-3-yl)-2,3-dihydro-1H-inden-1-yl)-3-(pyridin-3-yl)urea] | 1500 | 5.06 |
| O=C(N[C@@H]1CCc2cc(-c3noc(C(F)F)n3)ccc21)c1ccc(=O)n(CCO)c1 [Compound 656, (R)-N-(5-(5-(difluoromethyl)-1,2,4-oxadiazol-3-yl)-2,3-dihydro-1H-inden-1-yl)-1-(2-hydroxyethyl)-6-oxo-1,6-dihydropyridine-3-carboxamide] | 1900 | 5.09 |
| Cc1nc(-c2ccc3c(c2)CC[C@H]3NC(=O)OC2CCC2)no1 [Compound 319, cyclobutyl (R)-(5-(5-methyl-1,2,4-oxadiazol-3-yl)-2,3-dihydro-1H-inden-1-yl)carbamate] | 1300 | 5.28 |
| CC#Cc1ccc2c(c1)CC[C@H]2NC(=O)c1ccnn1C [Compound 452, (R)-1-methyl-N-(5-(prop-1-yn-1-yl)-2,3-dihydro-1H-inden-1-yl)-1H-pyrazole-5-carboxamide] | 4300 | 4.69 |
| CCc1nc(-c2ccc3c(c2)OC[C@H]3NC(=O)N2CC[C@@H](O)C2)no1 [Compound 740, (R)-N-((S)-6-(5-ethyl-1,2,4-oxadiazol-3-yl)-2,3-dihydrobenzofuran-3-yl)-3-hydroxypyrrolidine-1-carboxamide] | 1900 | 5.16 |
| [2H]C([2H])([2H])c1nc(-c2ccc3c(c2)OC[C@H]3NC(=O)c2cnc(C)o2)no1 [Compound 267, (S)-2-methyl-N-(6-(5-(methyl-d3)-1,2,4-oxadiazol-3-yl)-2,3-dihydrobenzofuran-3-yl)oxazole-5-carboxamide] | 1200 | 5.36 |
| COCc1nc(-c2ccc3c(c2)CC[C@H]3NC(=O)c2nonc2C)no1 [Compound 692, (R)-N-(5-(5-(methoxymethyl)-1,2,4-oxadiazol-3-yl)-2,3-dihydro-1H-inden-1-yl)-4-methyl-1,2,5-oxadiazole-3-carboxamide] | 1000 | 5.34 |
| CCc1nc(-c2ccc3c(c2)CCC3C(=O)Nc2ccnc(C)c2)no1 (centres unmarked) [Compound 483, 5-(5-ethyl-1,2,4-oxadiazol-3-yl)-N-(2-methylpyridin-4-yl)-2,3-dihydro-1H-indene-1-carboxamide] | 2000 | 5.17 |
| Cc1nc(-c2ccc3c(c2)CC[C@H]3NC(=O)C(F)F)no1 [Compound 435, (R)-2,2-difluoro-N-(5-(5-methyl-1,2,4-oxadiazol-3-yl)-2,3-dihydro-1H-inden-1-yl)acetamide] | 2600 | 4.95 |
| O=C(N[C@@H]1CCc2cc(-c3noc(C(F)F)n3)ccc21)c1cc(O)no1 [Compound 674, (R)-N-(5-(5-(difluoromethyl)-1,2,4-oxadiazol-3-yl)-2,3-dihydro-1H-inden-1-yl)-3-hydroxyisoxazole-5-carboxamide] | 1900 | 5.13 |
| COC(=O)Cc1nc(-c2ccc3c(c2)CC[C@H]3NC(=O)c2cnn(C)c2)no1 [Compound 544, methyl 2-(3-{(1R)-1-[(1-methylpyrazol-4-yl)carbonylamino]indan-5-yl}-1,2,4-oxadiazol-5-yl)acetate] | 34900 | 4.41 |

Other lines, results leading:

| CDMF75 IC15 [nM] | pIC50 | SMILES |
| --- | --- | --- |
| 900 | 5.44 | O=C(N[C@@H]1COc2cc(-c3noc(C(F)F)n3)ccc21)c1cc(CO)ccn1 [Compound 707, (S)-N-(6-(5-(difluoromethyl)-1,2,4-oxadiazol-3-yl)-2,3-dihydrobenzofuran-3-yl)-4-(hydroxymethyl)picolinamide] |
| 800 | 5.64 | Cc1cc(C(=O)NC2CCc3cc(-c4noc(C(F)F)n4)ccc32)n(C)n1 (centres unmarked) [Compound 30, N-(5-(5-(difluoromethyl)-1,2,4-oxadiazol-3-yl)-2,3-dihydro-1H-inden-1-yl)-1,3-dimethyl-1H-pyrazole-5-carboxamide] |
| 300 | 6.00 | Cc1oncc1C(=O)N[C@@H]1CCc2cc(-c3noc(C(F)F)n3)ccc21 [Compound 72, (R)-N-(5-(5-(difluoromethyl)-1,2,4-oxadiazol-3-yl)-2,3-dihydro-1H-inden-1-yl)-5-methylisoxazole-4-carboxamide] |
| 1200 | 5.37 | [2H]C([2H])([2H])c1noc(-c2ccc3c(c2)CC[C@H]3NC(=O)c2nnn(C)n2)n1 [Compound 272, (R)-2-methyl-N-(5-(3-(methyl-d3)-1,2,4-oxadiazol-5-yl)-2,3-dihydro-1H-inden-1-yl)-2H-tetrazole-5-carboxamide] |
| 300 | 5.96 | CCc1nc(-c2ccc3c(c2)CC[C@H]3NC(=O)c2cc(OC)no2)no1 [Compound 635, (R)-N-(5-(5-ethyl-1,2,4-oxadiazol-3-yl)-2,3-dihydro-1H-inden-1-yl)-3-methoxyisoxazole-5-carboxamide] |
| 400 | 5.92 | Cc1n[nH]cc1C(=O)N[C@@H]1CCc2cc(-c3noc(C(F)F)n3)ccc21 [Compound 71, (R)-N-(5-(5-(difluoromethyl)-1,2,4-oxadiazol-3-yl)-2,3-dihydro-1H-inden-1-yl)-3-methyl-1H-pyrazole-4-carboxamide] |
| 400 | 5.92 | Cc1cc(-c2ccc3c(c2)CC[C@H]3NC(=O)c2ccnn2C)no1 [Compound 403, (R)-1-methyl-N-(5-(5-methylisoxazol-3-yl)-2,3-dihydro-1H-inden-1-yl)-1H-pyrazole-5-carboxamide] |
| 1000 | 5.44 | [2H]C([2H])([2H])c1nc(-c2ccc3c(c2)CC[C@H]3NC(=O)c2cnn(C)c2C)no1 [Compound 250, (R)-1,5-dimethyl-N-(5-(5-(methyl-d3)-1,2,4-oxadiazol-3-yl)-2,3-dihydro-1H-inden-1-yl)-1H-pyrazole-4-carboxamide] |
| 600 | 5.60 | CCc1nc(-c2ccc3c(c2)CC[C@H]3NC(=O)c2nnc(C)s2)no1 [Compound 619, (R)-N-(5-(5-ethyl-1,2,4-oxadiazol-3-yl)-2,3-dihydro-1H-inden-1-yl)-5-methyl-1,3,4-thiadiazole-2-carboxamide] |
| 600 | 5.64 | Cc1n[nH]cc1C(=O)NC1CCc2cc(-c3noc(C(F)F)n3)ccc21 (centres unmarked) [Compound 69, N-(5-(5-(difluoromethyl)-1,2,4-oxadiazol-3-yl)-2,3-dihydro-1H-inden-1-yl)-3-methyl-1H-pyrazole-4-carboxamide] |
| 500 | 5.85 | CCc1nc(-c2ccc3c(c2)OCC3NC(=O)c2ccnn2C)no1 (centres unmarked) [Compound 229, N-(6-(5-ethyl-1,2,4-oxadiazol-3-yl)-2,3-dihydrobenzofuran-3-yl)-1-methyl-1H-pyrazole-5-carboxamide] |
| 600 | 5.70 | Cn1nccc1C(=O)NC1COc2cc(-c3noc(C4CC4)n3)ccc21 (centres unmarked) [Compound 221, N-(6-(5-cyclopropyl-1,2,4-oxadiazol-3-yl)-2,3-dihydrobenzofuran-3-yl)-1-methyl-1H-pyrazole-5-carboxamide] |
| 400 | 5.74 | O=C(N[C@@H]1CCc2cc(-c3noc(C(F)F)n3)ccc21)c1ccnc(CO)c1 [Compound 665, (R)-N-(5-(5-(difluoromethyl)-1,2,4-oxadiazol-3-yl)-2,3-dihydro-1H-inden-1-yl)-2-(hydroxymethyl)isonicotinamide] |
| 400 | 5.85 | CCc1nc(-c2ccc3c(c2)CC[C@H]3NC(=O)c2cnon2)no1 [Compound 615, (R)-N-(5-(5-ethyl-1,2,4-oxadiazol-3-yl)-2,3-dihydro-1H-inden-1-yl)-1,2,5-oxadiazole-3-carboxamide] |
| 400 | 5.85 | CCc1nc(-c2ccc3c(c2)CC[C@H]3NC(=O)c2ccnc(OC)c2)no1 [Compound 557, (R)-N-(5-(5-ethyl-1,2,4-oxadiazol-3-yl)-2,3-dihydro-1H-inden-1-yl)-2-methoxyisonicotinamide] |
| 300 | 6.10 | CCc1nc(-c2ccc3c(c2)OC[C@H]3NC(=O)c2ccnn2C)no1 [Compound 228, (S)—N-(6-(5-ethyl-1,2,4-oxadiazol-3-yl)-2,3-dihydrobenzofuran-3-yl)-1-methyl-1H-pyrazole-5-carboxamide] |
| 1200 | 5.39 | CCc1nc(-c2ccc3c(c2)CC[C@H]3NC(=O)c2cnn(CC(O)CO)c2)no1 (stereo partly drawn) [Compound 485, 1-(2,3-dihydroxypropyl)-N-((R)-5-(5-ethyl-1,2,4-oxadiazol-3-yl)-2,3-dihydro-1H-inden-1-yl)-1H-pyrazole-4-carboxamide] |
